Measured values from patent US7189720B2 (H. Lundbeck A/S, priority 1999, dated 2007).
Where two headings read alike, the source gives them in different places.

Biological target: T1, human Y5 receptor (Homo sapiens, UniProt Q15761)
T1 construct: expressed in transfected cells; host or cells: mouse fibroblast LM(tk-) cells, e.g. L-hY5-7 (ATCC CRL-11995)
T1 sequence (Q15761 1-445): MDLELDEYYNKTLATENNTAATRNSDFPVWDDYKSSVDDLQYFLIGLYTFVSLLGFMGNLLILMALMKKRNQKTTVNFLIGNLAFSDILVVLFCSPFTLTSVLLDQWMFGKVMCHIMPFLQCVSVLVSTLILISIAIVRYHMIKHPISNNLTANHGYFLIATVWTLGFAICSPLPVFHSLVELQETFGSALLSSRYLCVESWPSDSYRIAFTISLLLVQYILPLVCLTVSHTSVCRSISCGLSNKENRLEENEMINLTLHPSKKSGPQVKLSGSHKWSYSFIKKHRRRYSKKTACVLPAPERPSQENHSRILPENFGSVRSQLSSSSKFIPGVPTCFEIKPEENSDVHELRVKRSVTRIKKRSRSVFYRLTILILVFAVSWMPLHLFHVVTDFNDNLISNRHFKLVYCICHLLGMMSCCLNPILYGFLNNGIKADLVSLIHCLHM
Assay: Radioligand binding to membranes, cloned human Y5 receptor

[1] = Table 2, read-out: Ki (nM) hNPY-5
[2] = Table 3, read-out: Ki (nM) hNPY-5
[3] = Table 4, read-out: Ki (nM) hNPY-5
[4] = Table 5, read-out: Ki, nM hNPY-5

Row | SMILES | Ki [1] | Ki [2] | other results
1 | CCNc1nc(NCC)nc(NCC2CCC(CNS(=O)(=O)c3cc(C)ccc3OC)CC2)n1 (stereo not drawn) [Example 31, N1-[4-([4,6-di(ethylamino)-1,3,5-triazin-2-yl]aminomethyl)cyclohexyl]methyl-2-methoxy-5-methyl-1-benzenesulfonamide] | 25 nM |  | 
2 | CCNc1nc(NCC)nc(NCC2CCC(CNS(=O)(=O)c3ccccc3F)CC2)n1 (stereo not drawn) [Example 32, N1-[4-([4,6-di(ethylamino)-1,3,5-triazin-2-yl]aminomethyl)cyclohexyl]methyl-2-fluoro-1-benzenesulfonamide] | 35 nM |  | 
3 | CCNc1nc(NCC)nc(NCC2CCC(CNS(=O)(=O)c3ccccc3C)CC2)n1 (stereo not drawn) [Example 33, N1-[4-([4,6-di(ethylamino)-1,3,5-triazin-2-yl]aminomethyl)cyclohexyl]methyl-2-methyl-1-benzenesulfonamide] | 22 nM |  | 
4 | CCNc1nc(NCC)nc(NCC2CCC(CNS(=O)(=O)c3cccnc3)CC2)n1 (stereo not drawn) [Example 34, N3-[4-([4,6-di(ethylamino)-1,3,5-triazin-2-yl]aminomethyl)cyclohexyl]methyl-3-pyridinesulfonamide] | 427 nM |  | 
5 | CCNc1nc(NCC)nc(NCC2CCC(CNS(=O)(=O)c3ccc(OC)cc3)CC2)n1 (stereo not drawn) [Example 35, N1-[4-([4,6-di(ethylamino)-1,3,5-triazin-2-yl]aminomethyl)cyclohexyl]methyl-4-methoxy-1-benzenesulfonamide] | 82 nM |  | 
6 | CCNc1nc(NCC)nc(NCC2CCC(CNS(=O)(=O)c3oc(C)nc3C)CC2)n1 (stereo not drawn) [Example 36, N5-[4-([4,6-di(ethylamino)-1,3,5-triazin-2-yl]aminomethyl)cyclohexyl]methyl-2,4-dimethyl-1,3-oxazole-5-sulfonamide] | 71 nM |  | 
7 | CCNc1nc(NCC)nc(NCC2CCC(CNS(=O)(=O)c3cn(C)cn3)CC2)n1 (stereo not drawn) [Example 38, N4-[4-([4,6-di(ethylamino)-1,3,5-triazin-2-yl]aminomethyl)cyclohexyl]methyl-1-methyl-1H-4-imidazolesulfonamide] | 313 nM |  | 
8 | CCNc1nc(NCC)nc(NCC2CCC(CNS(=O)(=O)c3ccc(C)cc3)CC2)n1 (stereo not drawn) [Example 39, N1-[4-([4,6-di(ethylamino)-1,3,5-triazin-2-yl]aminomethyl)cyclohexyl]methyl-4-methyl-1-benzenesulfonamide] | 28 nM |  | 
9 | CCNc1nc(NCC)nc(NCC2CCC(CNS(=O)(=O)c3ccc4nsnc4c3)CC2)n1 (stereo not drawn) [Example 40, N5-[4-([4,6-di(ethylamino)-1,3,5-triazin-2-yl]aminomethyl)cyclohexyl]methyl-2,1,3-benzothiadiazole-5-sulfonamide] | 5 nM |  | 
10 | CCNc1nc(NCC)nc(NCC2CCC(CNS(=O)(=O)c3cccc4cccnc34)CC2)n1 (stereo not drawn) [Example 41, N8-[4-([4,6-di(ethylamino)-1,3,5-triazin-2-yl]aminomethyl)cyclohexyl]methyl-8-quinolinesulfonamide] | 13 nM |  | 
11 | CCNc1nc(NCC)nc(NCC2CCC(CNS(C)(=O)=O)CC2)n1 (stereo not drawn) [Example 42, N-[4-([4,6-di(ethylamino)-1,3,5-triazin-2-yl]aminomethyl)cyclohexyl]methylmethanesulfonamide] | 3070 nM |  | 
12 | CC(C)Nc1nc(NCC2CCC(CNS(=O)(=O)N3CCCC3)CC2)nc(N2CCCC2)n1 (stereo not drawn) [Example 43, N1-[4-([4-(isopropylamino)-6-tetrahydro-1H-1-pyrrolyl-1,3,5-triazin-2-yl]aminomethyl)cyclohexyl]methyl-1-pyrrolidinesulfonamide] |  | 43 nM | 
13 | CC(C)Nc1nc(NCC2CCC(CNS(=O)(=O)N3CCOCC3)CC2)nc(N2CCOCC2)n1 (stereo not drawn) [Example 44, N4-[4-([4-(isopropylamino)-6-morpholino-1,3,5-triazin-2-yl]aminomethyl)cyclohexyl]methyl-4-morpholinesulfonamide] |  | 295 nM | 
14 | CC(C)Nc1nc(NCC2CCC(CNS(=O)(=O)N3CCCCC3)CC2)nc(N2CCCCC2)n1 (stereo not drawn) [Example 45, N1-[4-([4-(isopropylamino)-6-piperidino-1,3,5-triazin-2-yl]aminomethyl)cyclohexyl]methyl-1-piperidinesulfonamide] |  | 59 nM | 
15 | CC(C)(C)c1ccc(S(=O)(=O)NCC2CCC(CNc3nc(N4CCCC4)nc(N4CCCC4)n3)CC2)cc1 (stereo not drawn) [Example 46, N1-[(4-[(4,6-ditetrahydro-1H-1-pyrrolyl-1,3,5-triazin-2-yl)amino]methylcyclohexyl)methyl]-4-(tert-butyl)-1-benzenesulfonamide] |  | 68 nM | 
16 | CC(C)Nc1nc(NCC2CCC(CNS(=O)(=O)NC3CC3)CC2)nc(NC2CC2)n1 (stereo not drawn) [Example 47, N-cyclopropyl-N′-[4-([4-(cyclopropylamino)-6-(isopropylamino)-1,3,5-triazin-2-yl]aminomethyl)cyclohexyl]methylsulfamide] |  | 359 nM | 
17 | CC(C)Nc1nc(NCC2CCC(CNS(=O)(=O)N(C)C)CC2)nc(NC2CC2)n1 (stereo not drawn) [Example 48, N′-[4-([4-(cyclopropylamino)-6-(isopropylamino)-1,3,5-triazin-2-yl]aminomethyl)cyclohexyl]methyl-N,N-dimethylsulfamide] |  | 192 nM | 

Row | SMILES | Ki [1] | Ki [2] | other results
18 | CN(C)S(=O)(=O)NCC1CCC(CNc2nc(N3CCOCC3)nc(N3CCOCC3)n2)CC1 (stereo not drawn) [Example 50, N′-[(4-[(4,6-dimorpholino-1,3,5-triazin-2-yl)amino]methylcyclohexyl)methyl]-N,N-dimethylsulfamide] |  | 3510 nM | 
19 | CC(C)Nc1nc(Cl)nc(NCC2CCC(CNS(=O)(=O)c3ccc(C(C)(C)C)cc3)CC2)n1 (stereo not drawn) [Example 51, N1-[4-([4-chloro-6-(isopropylamino)-1,3,5-triazin-2-yl]aminomethyl)cyclohexyl]methyl-4-(tert-butyl)-1-benzenesulfonamide] |  | 3540 nM | 
20 | O=S(=O)(NCC1CCC(CNc2nc(NC3CC3)nc(N3CCCC3)n2)CC1)c1ccc(F)cc1 (stereo not drawn) [Example 52, N1-[4-([4-(cyclopropylamino)-6-tetrahydro-1H-1-pyrrolyl-1,3,5-triazin-2-yl]aminomethyl)cyclohexyl]methyl-4-fluoro-1-benzenesulfonamide] |  | 101 nM | 
21 | CN(C)S(=O)(=O)NCC1CCC(CNc2nc(Cl)nc(Cl)n2)CC1 (stereo not drawn) [Example 53, N′-((4-(((4,6-dichloro-1,3,5-triazin-2-yl)amino)methyl)cyclohexyl)methyl)-N,N-dimethylsulfamide] |  | 20700 nM | 
22 | O=S(=O)(NCC1CCC(CNc2nc(NC3CC3)nc(-c3ccccn3)n2)CC1)c1ccc(F)cc1 (stereo not drawn) [Example 55, N1-[4-([4-(cyclopropylamino)-6-(2-pyridyl)-1,3,5-triazin-2-yl]aminomethyl)cyclohexyl]methyl-4-fluoro-1-benzenesulfonamide] |  | 209 nM | 
23 | CCNc1nc(NCC)nc(NCCCCCn2cccn2)n1 [Example 56, N2,N4-diethyl-N6-[5-(1H-1-pyrazolyl)pentyl]-1,3,5-triazine-2,4,6-triamine] |  |  | Ki [3]: 94400 nM
24 | CCNc1nc(NCC)nc(NCCCn2ccnc2)n1 [Example 57, N2,N4-diethyl-N6-[3-(1H-1-imidazolyl)propyl]-1,3,5-triazine-2,4,6-triamine] |  |  | Ki [3]: > 100000 nM
25 | CCNc1nc(NCC)nc(NCc2ccccn2)n1 [Example 58, N2,N4-diethyl-N6-(2-pyridylmethyl)-1,3,5-triazine-2,4,6-triamine] |  |  | Ki [3]: > 100000 nM
26 | COc1ccc(S(=O)(=O)NCCCCCNc2nc(-c3ccccn3)cs2)cc1 [Example 62, 2-(5-(4-Methoxyphenyl)sulfonylamino)pentylamino-4-(2-pyridyl)thiazole hydrogen chloride] |  |  | Ki [4]: 33 nM
27 | O=S(=O)(NCCCCCNc1nc(-c2ccccn2)cs1)c1ccc(F)c(F)c1 [Example 64, 2-(5-(3,4-Difluorophenyl)sulfonylamino)pentylamino-4-(2-pyridyl)thiazole hydrogen chloride] |  |  | Ki [4]: 42 nM
28 | O=S(=O)(Cc1ccccc1)NCCCCCNc1nc(-c2ccccn2)cs1 [Example 66, 2-(5-(Benzylsulfonylamino)pentylamino-4-(2-pyridyl)thiazole hydrogen chloride] |  |  | Ki [4]: 45 nM
29 | COc1ccc(C)cc1S(=O)(=O)N[C@H]1CC[C@H](CNc2nc(-c3ccccn3)cs2)CC1 [Example 83, trans-2-(4-(2-Methoxy-5-methylphenyl)sulfonylamino)-cyclohexylmethylamino-4-(2-pyridyl)thiazole dihydrogen chloride] |  |  | Ki [4]: 4 nM
30 | O=S(=O)(N[C@H]1CC[C@H](CNc2nc(-c3ccccn3)cs2)CC1)c1ccccc1F [Example 84, trans-2-(4-(2-Fluorophenyl)sulfonylamino)cyclohexylmethyl-amino-4-(2-pyridyl)thiazole dihydrogen chloride] |  |  | Ki [4]: 8.4 nM
31 | Cc1noc(C)c1S(=O)(=O)N[C@H]1CC[C@H](CNc2nc(-c3ccccn3)cs2)CC1 [Example 85, trans-2-(4-(3,5-Dimethyl-4-isoxazolyl)sulfonylamino)-cyclohexylmethylamino-4-(2-pyridyl)thiazole dihydrogen chloride] |  |  | Ki [4]: 3.8 nM
32 | O=S(=O)(N[C@H]1CC[C@H](CNc2nc(-c3cccnc3)cs2)CC1)c1ccccc1F [Example 86, trans-2-(4-(2-Fluorophenyl)sulfonylamino)cyclohexylmethyl-amino-4-(3-pyridyl)thiazole dihydrogen chloride] |  |  | Ki [4]: 12.3 nM
33 | COc1ccc(C)cc1S(=O)(=O)N[C@H]1CC[C@H](CNc2nc(-c3ccncc3)cs2)CC1 [Example 87, trans-2-(4-(2-Methoxy-5-methylphenyl)sulfonylamino)-cyclohexylmethylamino-4-(4-pyridyl)thiazole dihydrogen chloride] |  |  | Ki [4]: 17 nM
